According to patent publication US20130053323A1, “METHODS AND USE RELATED TO HUMANIN AND HUMANIN-LIKE PEPTIDES” (priority 2009, published 2013):

Assays:
[1] = test system: NMRI nude mice; experiment: Bone growth (X-ray) in tumor-xenografted NMRI nude mice; type: in vivo; conditions: HNG 1 μg/mice i.p. + bortezomib 1 mg/kg i.p. days 1, 4, 8, 11, day 13
Description: (§1) Male NMRI nu/nu mice (B&K Scanbur, Sweden or Taconic, Denmark) were xenografted at the age of 4 weeks (BW 18-25 g). The mice were anesthetized with 2% fluothane (Zeneca Ltd, Macclesfield, UK) supplemented with 50% N2O in oxygen. Tumor cells (NB (SH-SY5Y; 20×10^6 cells/side) or MB (D-283; 10×10^6 cells/side) in 0.1 ml medium) were implanted s.c. in the hindlegs of the animal using a 23 G needle. Tumors were measured every other day with a digital caliper, starting when they were palpable. At a tumor volume of 0.1 ml or 0.15 ml the animals were randomized into groups (1. Vehicle without tumors; 2. Vehicle with tumors; 3. HNG (S14G; 1 μg/mice); 4. CT (bortezomib; 0.8 mg/kg or 1 mg/kg); 5. HNG (S14G) 1 μg/mice+CT (bortezomib; 0.8 mg/kg or 1 mg/kg), stratified by their bodyweight and treatment started. Treatment regime was the same as in clinical settings with 2 injections/week; 2 weeks treatment (see FIG. 1, Group 1). HNG (S14G) was injected 40 min before the CT (bortezomib) injection. Tumor volume was calculated by the formula 0.44×length×width×width (Wassberg, Pahlman et al. 1997). […] The animal weight and general appearance were recorded every day throughout the experiments. […] After fixation, femur and tibia were measured with digital calipers and decalcified in 5% EDTA and then paraffin embedded. […]

[2] = test system: medulloblastoma (D-283) xenograft; experiment: Tumor volume in medulloblastoma xenograft in NMRI nude mice; type: in vivo, human; conditions: bortezomib + HNG i.p., until day 13
Description: as §1

Substance: S14G-HN (MAPRGFSCLLLLTGEIDLPVKRRA) [HNG (S14G)]
- rescue of bortezomib-induced impairment of linear bone growth ([1]; medulloblastoma xenograft): able to rescue and prevent the undesired side effects of CT (bortezomib) on linear bone growth
- rescue of bortezomib-induced impairment of linear bone growth ([1]; neuroblastoma xenograft): able to rescue and prevent the undesired side effects of CT (bortezomib) on linear bone growth
- interference with anti-cancer effect of bortezomib (tumor volume) [2]: does not interfere with the anti-cancer effect
